Key:
Format in all cases: cell-based
P2Y1 = P2Y1 (Homo sapiens, UniProt P47900); test: Calcium mobilization assay, P2Y1; set-up: key: no response (NR); details: activation of P2Y1 receptor;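 further: test compound added first then a maximal dose of the cognate agonist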
[1] = test system: washed platelet (ADP-induced aggregation; P2Y12 receptor); test: ADP-induced platelet aggregation, washed platelet preparation; details: Homo sapiens, inhibition of ADP-induced aggregation, washed platelets, average of at least two separate experiments
Experimental: Blood was collected from healthy volunteers into syringes containing ⅙ final blood volume of anti-coagulant ACD (65 mM citric acid, 85 mM sodium citrate, 110 mM dextrose) for washed platelet (WP) preparation or into a syringe containing a final concentration of 10 units/mL heparin or 300 μM PPACK for whole blood (WB) assays. The blood collected for whole blood assays was maintained at room temperature and immediately tested as described below. […] These centrifugations and washes were repeated twice following by resuspension in the media described above containing 0.25 U apyrase/mL. Platelet aggregation was measured using the optical mode of a CHRONOLOG® aggregometer (Havertown, Pa.). Five hundred μl of platelet suspension containing 1 mg/mL Fibrinogen were warmed to 37° C. and stirred at 1000 rpm. Indicated concentrations of ADP were added to the sample and aggregation was monitored for 8 minutes. […] For whole blood aggregation, blood was diluted 1:1 with saline and then aggregation was performed in the same manner as described above using the impedance mode of the aggregometer. The potency of agonists and inhibitors of platelet aggregation was calculated from both, the rate of aggregation and the maximal extent of aggregation obtained for each determination by fitting the data to a four-parameter logistic equation using the […]® software package (GraphPad Corp. San Diego, Calif.).
The ability of P2Y12 antagonists to inhibit platelet aggregation is presented in this application as the percent inhibition of the aggregation induced by a maximally effective concentration of ADP.
Data presented are from the average of at least two separate experiments.

P2Y6 = P2Y6 (Homo sapiens, UniProt Q15077); test: Calcium mobilization assay, P2Y6; set-up: key: no response (NR); details: activation of P2Y6 receptor;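 further: test compound added first then a maximal dose of the cognate agonist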
P2Y2 = P2Y2 (Homo sapiens, UniProt P41231); test: Calcium mobilization assay, P2Y2; set-up: key: no response (NR); details: activation of P2Y2 receptor;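 further: test compound added first then a maximal dose of the cognate agonist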
P2Y4 = P2Y4 (Homo sapiens, UniProt P51582); test: Calcium mobilization assay, P2Y4; set-up: key: no response (NR); details: activation of P2Y4 receptor;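 further: test compound added first then a maximal dose of the cognate agonist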
P2Y4, sequence (P51582 whole entry, species assumed): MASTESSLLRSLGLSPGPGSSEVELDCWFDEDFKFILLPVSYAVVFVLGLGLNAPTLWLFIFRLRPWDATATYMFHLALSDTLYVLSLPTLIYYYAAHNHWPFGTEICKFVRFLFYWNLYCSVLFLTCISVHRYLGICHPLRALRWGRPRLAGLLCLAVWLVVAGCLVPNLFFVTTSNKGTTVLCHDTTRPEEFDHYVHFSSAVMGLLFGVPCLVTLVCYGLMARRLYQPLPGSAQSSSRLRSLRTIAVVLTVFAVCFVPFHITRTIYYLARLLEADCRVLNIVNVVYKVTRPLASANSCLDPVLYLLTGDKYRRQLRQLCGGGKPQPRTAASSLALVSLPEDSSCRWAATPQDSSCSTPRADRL

P2Y2, sequence (P41231 whole entry, species assumed): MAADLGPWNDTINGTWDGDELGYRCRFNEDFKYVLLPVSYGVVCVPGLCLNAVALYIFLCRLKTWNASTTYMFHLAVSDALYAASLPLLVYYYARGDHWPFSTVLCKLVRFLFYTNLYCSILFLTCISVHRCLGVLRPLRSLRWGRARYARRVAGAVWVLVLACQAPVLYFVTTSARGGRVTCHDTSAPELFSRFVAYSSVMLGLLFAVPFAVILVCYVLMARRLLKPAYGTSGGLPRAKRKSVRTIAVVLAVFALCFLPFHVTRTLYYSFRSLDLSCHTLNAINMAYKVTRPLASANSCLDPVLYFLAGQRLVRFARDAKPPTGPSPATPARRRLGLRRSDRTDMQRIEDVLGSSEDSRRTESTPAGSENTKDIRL
P2Y6, sequence (Q15077 whole entry, species assumed): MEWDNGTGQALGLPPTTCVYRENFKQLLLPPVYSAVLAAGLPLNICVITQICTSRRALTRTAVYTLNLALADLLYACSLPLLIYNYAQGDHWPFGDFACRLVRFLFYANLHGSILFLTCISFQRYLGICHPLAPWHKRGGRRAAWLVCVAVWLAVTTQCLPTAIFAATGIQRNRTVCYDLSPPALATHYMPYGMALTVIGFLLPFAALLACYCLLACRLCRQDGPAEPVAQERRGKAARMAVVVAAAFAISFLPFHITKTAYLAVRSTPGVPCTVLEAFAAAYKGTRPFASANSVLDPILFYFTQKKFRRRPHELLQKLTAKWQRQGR
P2Y1, sequence (P47900 whole entry): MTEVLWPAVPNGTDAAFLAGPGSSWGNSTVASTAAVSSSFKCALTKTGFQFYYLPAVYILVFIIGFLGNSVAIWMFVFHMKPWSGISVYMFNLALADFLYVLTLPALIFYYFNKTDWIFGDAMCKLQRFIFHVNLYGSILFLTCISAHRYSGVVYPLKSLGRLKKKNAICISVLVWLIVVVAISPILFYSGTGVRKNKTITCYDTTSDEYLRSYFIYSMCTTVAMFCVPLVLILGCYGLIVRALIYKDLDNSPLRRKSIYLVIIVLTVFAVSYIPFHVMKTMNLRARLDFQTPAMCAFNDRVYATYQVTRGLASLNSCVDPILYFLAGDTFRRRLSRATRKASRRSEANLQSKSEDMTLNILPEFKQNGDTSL

Row | SMILES | Calcium Mobilization P2Y1 (P2Y1) | IC50 [1] [nM] | Calcium Mobilization P2Y6 (P2Y6) | Calcium Mobilization P2Y2 (P2Y2) | Calcium Mobilization P2Y4 (P2Y4)
1 | CCNC(=O)Nc1ncnc2c1ncn2[C@@H]1O[C@H](COP(=O)(O)O)C2O[C@H](c3ccccc3)O[C@@H]21 (stereo partly drawn) [Compound 42, 2′3′-(trans)phenyl acetal-6-N-ethylurea AMP] | NR | 12 | NR | NR | NR
2 | O=C(Nc1ccccc1)Nc1ncnc2c1ncn2[C@@H]1O[C@H](COP(=O)(O)O)C2OC(/C=C/c3ccccc3)O[C@@H]21 (stereo partly shown) [Compound 28, 2′,3′-cinnamyl acetal-6-N-phenylurea AMP] | NR | 209 | NR | NR | NR
3 | CCCCCCNC(=O)Nc1ncnc2c1ncn2[C@@H]1O[C@H](COP(=O)(O)O)C2OC(C#Cc3ccccc3)O[C@@H]21 (stereo partly shown) [Compound 32, 2′,3′-phenylpropargyl acetal-6-N-n-hexylurea AMP] | NR | 210 | NR | NR | NR
4 | O=C(Nc1ccccc1)Nc1ncnc2c1ncn2[C@@H]1O[C@H](COP(=O)(O)O)C2OC(C#Cc3ccccc3)O[C@@H]21 (stereo partly shown) [Compound 31, 2′,3′-phenylpropargyl acetal-6-N-phenylurea AMP] | NR | 230 | NR | NR | NR
5 | CCNC(=O)Nc1ncnc2c1ncn2[C@@H]1O[C@H](COP(=O)(O)OP(=O)(O)OC[C@H]2O[C@@H](n3cnc4c(NC(=O)NCC)ncnc43)[C@H]3OC(C#Cc4ccccc4)OC23)C2OC(C#Cc3ccccc3)OC21 (stereo partly shown) [Compound 45, P^1, p2′-di-(2′,3′-phenylpropargylacetal-6-N-ethylureaadenosine 5′-) diphosphate] | NR | 10 | NR | NR | NR
6 | CCNC(=O)Nc1ncnc2c1ncn2[C@@H]1O[C@H](COP(=O)(O)O)C2OC(C#Cc3ccccc3)O[C@@H]21 (stereo partly shown) [Compound 35, 2′,3′-phenylpropargyl acetal-6-N-ethylurea AMP] | NR | 25 | NR | NR | NR
7 | O=C(Nc1ccccc1)Nc1ncnc2c1ncn2[C@@H]1O[C@H](COP(=O)(O)O)C2OC(Cc3ccccc3)O[C@@H]21 (stereo partly shown) [Compound 22, 2′,3′-phenylacetaldehyde acetal-6-N-phenylurea adenosine 5′-monophosphate] | NR | 160 ± 27 | NR | NR | NR
8 | CCNC(=O)Nc1ncnc2c1ncn2[C@@H]1O[C@H](COP(=O)(O)O)C2OC(/C=C/c3ccccc3)O[C@@H]21 (stereo partly shown) [Compound 27, 2′,3′-cinnamyl acetal-6-N-ethylurea adenosine 5′-monophosphate] | NR | 9 ± 3 | NR | NR | NR
9 | CCNC(=O)Nc1ncnc2c1ncn2[C@@H]1O[C@H](COP(=O)(O)O)C2OC(Cc3ccccc3)O[C@@H]21 (stereo partly shown) [Compound 24, 2′,3′-phenylacetaldehyde acetal-6-N-ethylurea AMP] | NR | 41 ± 7 | NR | NR | NR
10 | CCNC(=O)Nc1ncnc2c1ncn2[C@@H]1O[C@H](COP(=O)(O)OP(=O)(O)OC[C@H]2O[C@@H](n3cnc4c(NC(=O)NCC)ncnc43)[C@H]3OC(Cc4ccccc4)OC23)C2OC(Cc3ccccc3)OC21 (stereo partly shown) [Compound 46, P^1, P^1-di-(2′,3′-phenylacetaldehydeacetal-6-N-ethylureaadenosine 5′-) diphosphate] | NR | 53 | NR | NR | NR
11 | CCNC(=O)Nc1ncnc2c1ncn2[C@@H]1O[C@H](COP(=O)(O)O)C2O[C@@H](c3ccccc3)O[C@@H]21 (stereo partly drawn) [Compound 43, 2′3′-(cis)phenyl acetal-6-N-ethylurea AMP] | NR | 11 | NR | NR | NR
12 | CCNC(=O)Nc1ncnc2c1ncn2[C@@H]1O[C@H](COP(=O)(O)O)C2OC(c3ccccc3)O[C@@H]21 (stereo partly shown) [Compound 36, 2′,3′-benzaldehyde acetal-6-N-ethylurea AMP] | NR | 13 ± 3 | NR | NR | NR
13 | CCNC(=O)Nc1ncnc2c1ncn2[C@@H]1O[C@H](COP(=O)(O)OP(=O)(O)OC[C@H]2O[C@@H](n3cnc4c(NC(=O)NCC)ncnc43)[C@H]3OC(c4ccccc4)OC23)C2OC(c3ccccc3)OC21 (stereo partly shown) [Compound 47, P^1, P^4-Di-(2′,3′-phenylacetal-6-N-ethylureaadenosine 5′-) diphosphate] | NR | 55 | NR | NR | NR
14 | CCCCCCNC(=O)Nc1ncnc2c1ncn2[C@@H]1O[C@H](COP(=O)(O)O)C2OC(/C=C/c3ccccc3)O[C@@H]21 (stereo partly shown) [Compound 26, 2′,3′-cinnamyl acetal-6-N-n-hexylurea AMP] | NR | 36 ± 9 | NR | NR | NR
15 | CCCCNC(=O)Nc1ncnc2c1ncn2[C@@H]1O[C@H](COP(=O)(O)O)C2OC(C#Cc3ccccc3)O[C@@H]21 (stereo partly shown) [Compound 33, 2′,3′-phenylpropargyl acetal-6-N-n-butylurea AMP] | NR | 67 | NR | NR | NR
16 | O=C(Nc1ncnc2c1ncn2[C@@H]1O[C@H](COP(=O)(O)O)C2OC(Cc3ccccc3)O[C@@H]21)NC1CCCC1 (stereo partly shown) [Compound 25, 2′,3′-phenylacetaldehyde acetal-6-N-cyclopentylurea AMP] | NR | 36 ± 9 | NR | NR | NR
17 | CCCCCCNC(=O)Nc1ncnc2c1ncn2[C@@H]1O[C@H](COP(=O)(O)O)C2OC(Cc3ccccc3)O[C@@H]21 (stereo partly shown) [Compound 23, 2′,3′-phenylacetaldehyde acetal-6-N-n-hexylurea AMP] | NR | 53 ± 16 | NR | NR | NR

From patent US7452870B2, “Drug-eluting stents coated with P2Y12 receptor antagonist compound” (Inspire Pharmaceuticals, Inc., priority 2000, dated 2008)
